Results reported in PMC9268560, “Design, Synthesis, In Silico and In Vitro Studies of New Immunomodulatory Anticancer Nicotinamide Derivatives Targeting VEGFR-2” (Molecules, 2022).
Read-outs that look alike come from different tables or passages of the source.

Assays:
HepG2 = assay: In vitro anti-proliferative activity (MTT assay), HepG2; settings: for Selectivity index (SI) (HepG2): cytotoxicity against Vero cells/cytotoxicity against HepG2
human VEGFR-2 = human VEGFR-2 (Homo sapiens, UniProt P35968); assay: In vitro VEGFR-2 enzyme inhibition assay (Human VEGFR-2 ELISA kit)
Sequence of human VEGFR-2 (P35968 20-1356): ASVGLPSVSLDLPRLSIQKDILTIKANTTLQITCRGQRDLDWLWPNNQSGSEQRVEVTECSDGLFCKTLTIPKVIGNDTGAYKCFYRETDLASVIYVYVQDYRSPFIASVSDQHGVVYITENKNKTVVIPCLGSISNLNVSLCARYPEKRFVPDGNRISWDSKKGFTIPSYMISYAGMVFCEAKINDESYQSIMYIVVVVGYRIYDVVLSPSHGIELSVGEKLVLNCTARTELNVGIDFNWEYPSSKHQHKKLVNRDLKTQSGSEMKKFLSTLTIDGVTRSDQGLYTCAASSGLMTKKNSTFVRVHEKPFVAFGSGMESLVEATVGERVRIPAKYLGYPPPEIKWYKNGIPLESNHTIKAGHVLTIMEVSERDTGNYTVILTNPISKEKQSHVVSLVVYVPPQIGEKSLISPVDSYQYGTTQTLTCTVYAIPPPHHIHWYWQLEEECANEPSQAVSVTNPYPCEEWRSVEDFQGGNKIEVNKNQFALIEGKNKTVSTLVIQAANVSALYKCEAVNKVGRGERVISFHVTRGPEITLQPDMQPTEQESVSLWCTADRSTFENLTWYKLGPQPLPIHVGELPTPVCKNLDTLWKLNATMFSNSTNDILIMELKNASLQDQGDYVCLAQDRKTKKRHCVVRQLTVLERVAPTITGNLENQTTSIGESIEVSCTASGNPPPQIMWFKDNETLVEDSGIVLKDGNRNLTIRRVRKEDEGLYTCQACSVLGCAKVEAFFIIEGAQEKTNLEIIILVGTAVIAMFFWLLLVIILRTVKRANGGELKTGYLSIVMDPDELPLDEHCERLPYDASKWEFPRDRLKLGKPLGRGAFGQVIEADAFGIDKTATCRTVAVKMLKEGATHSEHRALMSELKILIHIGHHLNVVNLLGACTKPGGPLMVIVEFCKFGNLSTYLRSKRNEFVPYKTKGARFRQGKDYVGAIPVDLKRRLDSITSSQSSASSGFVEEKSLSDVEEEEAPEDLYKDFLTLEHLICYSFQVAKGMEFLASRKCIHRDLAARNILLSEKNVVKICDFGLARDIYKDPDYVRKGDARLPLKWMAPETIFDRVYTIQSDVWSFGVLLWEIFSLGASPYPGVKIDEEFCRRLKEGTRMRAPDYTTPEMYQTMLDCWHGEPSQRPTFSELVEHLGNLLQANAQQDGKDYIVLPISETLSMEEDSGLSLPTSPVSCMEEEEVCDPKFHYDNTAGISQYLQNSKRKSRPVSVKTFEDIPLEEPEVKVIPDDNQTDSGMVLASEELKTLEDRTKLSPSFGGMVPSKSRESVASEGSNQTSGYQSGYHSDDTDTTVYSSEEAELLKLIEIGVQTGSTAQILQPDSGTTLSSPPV

HCT-116 = assay: In vitro anti-proliferative activity (MTT assay), HCT-116; settings: for Selectivity index (SI) (HCT-116): Cytotoxicity against Vero cells/cytotoxicity against HCT-116
[1] = In vitro viability test (MTT) on non-cancerous Vero cell lines; type: cell-based; settings: African green monkey, Vero cells (non-cancerous), non-cancerous model, read-out: Cytotoxicity Against Vero Cell Lines (IC50)
Source text: (§1) An in-vitro viability test was used to investigate the safety patterns of the tested compounds at different concentrations. The Vero cell lines were used as a non-cancerous model to investigate the safety of the targeted compounds. […] Such values are very high in comparison to the corresponding values on the cancer cell lines, which reflect the high in vitro safety profiles of the tested members towards the examined non-cancerous cell lines (Table 2).

caspase-8 = assay: Caspase-8 expression level in treated HCT-116 cells (qRT-PCR); settings: HCT-116, 5.4 µM, 24 h
IL-6 = IL-6 level in treated HCT-116 cells (qRT-PCR); type: cell-based, human; settings: HCT-116, 5.4 µM, 24 h
TNF-α = TNF-α level in treated HCT-116 cells (qRT-PCR); type: cell-based; settings: Homo sapiens; HCT-116, 5.4 µM, 24 h; control 82.47
Bcl-2 = Bcl-2 expression level in treated HCT-116 cells (qRT-PCR); settings: HCT-116, 5.4 µM, 24 h
HCT-116 cells [2] = assay: Flow cytometry analysis for apoptosis (Annexin V and PI double staining); type: cell-based, human; settings: HCT-116, 5.4 µM, 24 h
HCT-116 cells [3] = assay: Flow cytometry analysis for cell cycle (PI staining); type: cell-based, human; settings: HCT-116, 5.4 µM, 24 h
Bax = Bax expression level in treated HCT-116 cells (qRT-PCR); settings: HCT-116, 5.4 µM, 24 h
Vero cell lines = assay: In vitro viability test (MTT) on non-cancerous Vero cell lines; type: cell-based; settings: non-cancerous model, read-out: Cytotoxicity Against Vero Cell Lines (IC50)
Source text: as §1

[4] = Homo sapiens, HepG2, read-out: Cytotoxicity IC50 HepG2
[5] = Homo sapiens, HCT-116, read-out: Cytotoxicity IC50 HCT-116

Molecule	IC50 (HepG2; [4]) [µM]	Selectivity index (SI) (HepG2) (HepG2)	IC50 (human VEGFR-2) [µM]	Selectivity index (SI) (HCT-116) (HCT-116)	IC50 (HCT-116; [5]) [µM]	IC50 [1] [µM]	other results
O=C(N/N=C/c1ccc(Cl)cc1Cl)c1ccc(NC(=O)c2cccnc2)cc1 [Compound 6, (E)-N-(4-(2-(2,4-Dichlorobenzylidene)hydrazine-1-carbonyl)phenyl)-nicotinamide]	16.5 ± 0.057	5.13	0.172 ± 0.0102	4.76	17.8 ± 0.059	84.7	
COc1ccc(/C=N/NC(=O)c2ccc(NC(=O)c3cccnc3)cc2)cc1OC [Compound 7, (E)-N-(4-(2-(3,4-Dimethoxybenzylidene)hydrazine-1-carbonyl)phenyl)-nicotinamide]	18.8 ± 0.061	6.80	0.113 ± 0.00723	6.66	19.2 ± 0.062	128	
CN(C)c1ccc(/C=C/C=N/NC(=O)c2ccc(NC(=O)c3cccnc3)cc2)cc1 [Compound 8, N-(4-(2-((1E,2E)-3-(4-(Dimethylamino)phenyl)allylidene)hydrazine-1-carbonyl)phenyl)nicotinamide]	7.1 ± 0.03	12.01	0.077 ± 0.00425	15.79	5.4 ± 0.02	85.2	Increase in caspase-8 level vs control cells (caspase-8): 9.4 fold; Caspase-8 expression level (caspase-8; control 50.317): 472.3 pg/mL; Effect on the level of IL-6 (in words) (IL-6): non-significant reduction; inhibition at 5.4 µM (IL-6; Homo sapiens, control 93.15): 94.1%; inhibition at 5.4 µM (TNF-α): 92.4%; Decrease in Bcl-2 level vs control cells (Bcl-2): 3 fold; Bcl-2 expression level (Bcl-2; control 5.603): 1.844 pg/mL; Increase in total apoptosis vs control (HCT-116 cells [2]): 6.5 fold; Necrosis (HCT-116 cells [2]; control 0.62): 1.85%; Apoptosis Early (HCT-116 cells [2]; control 0.7): 3.74%; Apoptosis Late (HCT-116 cells [2]; control 1.73): 14.23%; Apoptosis Total (HCT-116 cells [2]; control 3.05): 19.82%; Augmentation of G0–G1 phase vs control (HCT-116 cells [3]): 1.42 fold; Decline of cell population at G2/M phase vs control (HCT-116 cells [3]): 2.11 fold; Cell Cycle Distribution %G2-M (HCT-116 cells [3]; control 27.29): 12.91%; Cell Cycle Distribution % S (HCT-116 cells [3]; control 33.75): 31.47%; Cell Cycle Distribution %G0-G1 (HCT-116 cells [3]; control 38.96): 55.62%; Cell Cycle Distribution %Pre-G1 (HCT-116 cells [3]; control printed 19.82): 3.05%; Increase in Bax level vs control cells (Bax): 9.2 fold; Bax expression level (Bax; control 42.19): 387.26 pg/mL
CC(=NNC(N)=S)c1ccc(NC(=O)c2cccnc2)cc1 [Compound 11, N-(4-(1-(2-Carbamothioylhydrazono)ethyl)phenyl)nicotinamide]	20.3 ± 0.064	5.19	0.0834 ± 0.00553	4.20	25.07 ± 0.07	105	
CNC(=O)c1cc(Oc2ccc(NC(=O)Nc3ccc(Cl)c(C(F)(F)F)c3)cc2)ccn1 [Sorafenib, sorafenib, reference compound]	7.4 ± 0.235				9.3 ± 0.201		
(E)-N-(4-(1-(2-(2,6-Dinitrophenyl)hydrazono)ethyl)phenyl)nicotinamide [Compound 12]		5.45		5.24			IC50 (HepG2; read-out: Cytotoxicity IC50 HepG2, MTT, mean ± S.D. of three separate experiments): 17.5 ± 0.058 µM; IC50 (human VEGFR-2; read-out: VEGFR-2 IC50, mean ± S.D. of three separate experiments): 0.115 ± 0.00733 µM; IC50 (HCT-116; read-out: Cytotoxicity IC50 HCT-116, MTT, mean ± S.D. of three separate experiments): 18.2 ± 0.06 µM; IC50 (Vero cell lines): 95.4 µM
